Values of other authors in patent publication US20070154432A1, “Compositions and methods for hair growth” (priority 2005, published 2007).

Assays:
5α-alpha reductase = conditions: individually shown / studies have suggested
[1] = 200 individual; published in the Federal Register

Compound	inhibition of 5α-alpha reductase (in words) (5α-alpha reductase)	toxicity, irritation and allergenicity by Schwartz patch test [1]
CC/C=C\C/C=C\C/C=C\CCCCCCCC(=O)O [ALA, Alpha Linolenic Acid]	inhibit	–
NC(=O)NC1NC(=O)NC1=O (centres unmarked) [Allantoin, allantoin]	–	nontoxic, nonirritating and non-allergenic
CCCCC/C=C\C/C=C\C/C=C\CCCCC(=O)O [GLA, Gamma Linolenic Acid]	inhibit	–
CCCCC/C=C\C/C=C\CCCCCCCC(=O)O [linoleic acid, Linoleic Acid]	inhibit	–
[Zn] [zinc]	inhibits	–
